The structures appear in SMILES notation.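 Test compounds were applied to cells in 96-well plates for 48 hours at 5 doses. TGI marks complete inhibition of growth.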

Test systems include 786-0 renal; A498 renal; ACHN renal; COLO 205 colon; HCT-15 colon; HL-60(TB) leukemia; HOP-62 NSCLC; HOP-92 NSCLC; M19-MEL melanoma; NCI-H23 lung; NCI-H460 lung; SF-539 CNS; SR leukemia; SW-620 colon; TK-10 renal; U251 CNS; CAKI-1 renal; KM12 colon.
Assay in all cases: growth of human tumour cells (NCI), 48 h

Consider `CS(=O)(=O)C1(Br)S(=O)(=O)OCCOS1(=O)=O`, for which the TGI with 786-0 renal, in the assay with A498 renal, in the assay with ACHN renal, in the assay with COLO 205 colon, in the assay on HCT-15 colon and in the assay on HL-60(TB) leukemia was more than 100 µM in each case. For the same molecule, the TGI in the assay on HOP-62 NSCLC, in the assay on HOP-92 NSCLC, in the assay with M19-MEL melanoma, with NCI-H23 lung, in the assay with NCI-H460 lung and in the assay on SF-539 CNS was more than 100 µM each time. In addition, the TGI in the assay with SR leukemia, with SW-620 colon, in the assay with TK-10 renal and in the assay on U251 CNS was more than 100 µM each time.

On to `O=C(Nc1nc2ncn(CCO)c2c(=O)[nH]1)c1ccccc1`, for which the TGI in the assay with 786-0 renal, in the assay with A498 renal, in the assay on ACHN renal, in the assay on CAKI-1 renal, in the assay on COLO 205 colon and in the assay with HCT-15 colon was more than 100 µM in each case. In addition, the TGI in the assay on HL-60(TB) leukemia, in the assay on HOP-62 NSCLC, with HOP-92 NSCLC, in the assay on KM12 colon, with M19-MEL melanoma and in the assay with NCI-H460 lung was more than 100 µM throughout. Moreover, the TGI with SF-539 CNS, in the assay on SR leukemia, with SW-620 colon, in the assay with TK-10 renal and in the assay on U251 CNS was more than 100 µM each time.

`CC(=O)Nc1ccc(S(=O)(=O)NN(C)S(=O)(=O)c2ccc(C)cc2)cc1`: the TGI in the assay with 786-0 renal, with A498 renal, in the assay with ACHN renal, with CAKI-1 renal, with COLO 205 colon and with HL-60(TB) leukemia was more than 100 µM throughout. For the same molecule, the TGI in the assay on HOP-62 NSCLC, in the assay with HOP-92 NSCLC, with KM12 colon, in the assay with M19-MEL melanoma, in the assay on NCI-H23 lung and with NCI-H460 lung was more than 100 µM each time. Besides, the TGI in the assay on SF-539 CNS, in the assay on SR leukemia, in the assay on SW-620 colon and with TK-10 renal was more than 100 µM each time.

As to `COc1ccc(/C=C/c2cc(OC)c(OCc3ccccc3)c(OC)c2)cc1`, the TGI with 786-0 renal, in the assay with A498 renal, with ACHN renal, with CAKI-1 renal, with COLO 205 colon and with HOP-62 NSCLC was more than 100 µM in each case. In addition, the TGI with HOP-92 NSCLC, with KM12 colon, with M19-MEL melanoma, in the assay on NCI-H23 lung, in the assay with NCI-H460 lung and with SF-539 CNS was more than 100 µM in each case. In addition, the TGI in the assay with SR leukemia, in the assay on SW-620 colon and in the assay with U251 CNS was more than 100 µM in each case.

Turning to `C/C(N=NS(=O)(=O)c1ccc(C)cc1)=C1\C=CC=CN1O`, the TGI in the assay with 786-0 renal, in the assay with A498 renal, in the assay with ACHN renal, with CAKI-1 renal, with HCT-15 colon and with HL-60(TB) leukemia was more than 100 µM throughout. The TGI with HOP-62 NSCLC, with HOP-92 NSCLC, with KM12 colon, in the assay on M19-MEL melanoma, with NCI-H23 lung and in the assay with NCI-H460 lung was more than 100 µM in each case. In addition, the TGI in the assay with SF-539 CNS, with SR leukemia, in the assay on SW-620 colon, with TK-10 renal and in the assay with U251 CNS was more than 100 µM each time.

For `CSc1ccc2c(cc1=O)C(NC(=O)c1ccc(C#N)cc1)CCc1cc(O)c(O)c(O)c1-2` (configuration not stated), the TGI in the assay on 786-0 renal is more than 100 µM; in the assay with A498 renal, more than 100 µM; with ACHN renal it was more than 100 µM; in the assay with COLO 205 colon, 38.6 µM; with HCT-15 colon, 36.6 µM; in the assay on HL-60(TB) leukemia it was 51.9 µM. For the same molecule, the TGI in the assay with HOP-62 NSCLC was more than 100 µM; in the assay on KM12 colon it was more than 100 µM; in the assay with M19-MEL melanoma, 39 µM; in the assay with NCI-H23 lung it was 71.3 µM; in the assay with NCI-H460 lung it was 73.3 µM; in the assay on SF-539 CNS, 36.1 µM. The TGI is 48.7 µM in the assay with SR leukemia, 37.7 µM in the assay on SW-620 colon, more than 100 µM in the assay on TK-10 renal and 45.3 µM in the assay with U251 CNS.

The values above are taken from PubChem BioAssay (NCI).
